Several values for one entry are separate records, joined by “and”; a condition that tells them apart may be missing. Equal values may be shown once. Toxic doses and inconclusive results are not listed.
Test system: L1210 leukemia ip in BDF1 mice, survival T/C
Assay: NCI In Vivo Anticancer Drug Screen. Data for tumor model L1210 Leukemia (intraperitoneal) in B6D2F1 (BDF1) mice
Details: endpoint: mean survival time, higher = longer survival
Outline: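 In this screen, tumor-bearing mice given compound are compared to those given vehicle, and their survival values are reported as a treated-to-control quotient.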

[1] = dose: 100.0 mg/kg/injection, schedule: Q04DX003 (ip), vehicle: saline with Tween-80
[2] = dose: 400.0 mg/kg/injection, schedule: Q04DX003 (ip), vehicle: saline with Tween-80
[3] = dose: 100.0 mg/kg/injection, schedule: Q01DX009 (ip), vehicle: saline
[4] = dose: 100.0 mg/kg/injection, schedule: Q04DX003 (ip), vehicle: saline
[5] = dose: 200.0 mg/kg/injection, schedule: Q01DX009 (ip), vehicle: saline
[6] = dose: 200.0 mg/kg/injection, schedule: Q04DX003 (ip), vehicle: saline
[7] = dose: 400.0 mg/kg/injection, schedule: Q01DX009 (ip), vehicle: saline
[8] = dose: 400.0 mg/kg/injection, schedule: Q04DX003 (ip), vehicle: saline

With `O=C(O)CCC(=O)Nc1ccc(Cl)cc1` the T/C [1] was 97 % of control, the T/C (dose: 200.0 mg/kg/injection, schedule: Q04DX003 (ip), vehicle: saline with Tween-80) was 94 % of control and the T/C [2] was 86 % of control.
With `COC(=O)C(N)CCl` (stereo not drawn) the T/C (dose: 100.0 mg/kg/injection, schedule: Q01DX001 (ip), vehicle: steriod suspending solution) was 101 % of control, the T/C [3] was 93 % of control and the T/C [4] was 106 % of control. For the same molecule, the T/C (dose: 200.0 mg/kg/injection, schedule: Q01DX001 (ip), vehicle: steriod suspending solution) was 95 % of control, the T/C [5] was 100 % of control and the T/C [6] was 102 % of control. The T/C (dose: 400.0 mg/kg/injection, schedule: Q01DX001 (ip), vehicle: steriod suspending solution) was 106 % of control, the T/C [7] was 101 % of control and the T/C [8] was 104 % of control.
For `CC1CC(=O)C(CN(C)C)C(C)(C)C1` (stereo not drawn), the T/C (dose: 75.0 mg/kg/injection, schedule: Q01DX001 (ip), vehicle: saline) was 106 % of control and the T/C (dose: 150.0 mg/kg/injection, schedule: Q01DX001 (ip), vehicle: saline) was 100 % of control.
`CCOC(=O)CCN(Cc1ccco1)C(=S)Nc1ccccc1` was tested, and the T/C (dose: 200.0 mg/kg/injection, schedule: Q01DX Z (ip), vehicle: methylcellulose (MC)) was 89 % of control.
With `CC1CNC(=S)S1` (stereo not drawn) the T/C (dose: 100.0 mg/kg/injection, schedule: Q01DX009 (ip), vehicle: Klucel (hydroxypropylcellulose) (HPC)) was 105 % of control, the T/C (dose: 100.0 mg/kg/injection, schedule: Q04DX003 (ip), vehicle: Klucel (hydroxypropylcellulose) (HPC)) was 107 % of control and the T/C (dose: 200.0 mg/kg/injection, schedule: Q01DX009 (ip), vehicle: Klucel (hydroxypropylcellulose) (HPC)) was 100 % of control. The T/C (dose: 200.0 mg/kg/injection, schedule: Q04DX003 (ip), vehicle: Klucel (hydroxypropylcellulose) (HPC)) was 102 % of control and the T/C (dose: 400.0 mg/kg/injection, schedule: Q04DX003 (ip), vehicle: Klucel (hydroxypropylcellulose) (HPC)) was 102 % of control.
`COc1ccc(Oc2cccc3c2CCN(C)C3)cc1` was tested, and the T/C (dose: 12.5 mg/kg/injection, schedule: Q04DX002 (ip), vehicle: Klucel (hydroxypropylcellulose) (HPC)) was 102 % of control, the T/C (dose: 25.0 mg/kg/injection, schedule: Q04DX002 (ip), vehicle: Klucel (hydroxypropylcellulose) (HPC)) was 115 % of control and the T/C (dose: 50.0 mg/kg/injection, schedule: Q04DX002 (ip), vehicle: Klucel (hydroxypropylcellulose) (HPC)) was 97 % of control.
In the case of `COCC1OC(n2cnc3c(N(C)C)ncnc32)C(OC)C1OC` (stereo not drawn), the T/C (dose: 50.0 mg/kg/injection, schedule: Q01DX005 (ip), vehicle: saline) is reported as 112 % of control, the T/C (dose: 100.0 mg/kg/injection, schedule: Q01DX005 (ip), vehicle: saline) is reported as 102 % of control and the T/C (dose: 200.0 mg/kg/injection, schedule: Q01DX005 (ip), vehicle: saline) is reported as 96 % of control.
For `CCOC1=C(N2CC2)C(=O)C(OCC)=C(N2CC2)C1=O`, the T/C (dose: 0.1 mg/kg/injection, schedule: Q01DX009 (ip), vehicle: saline) was 109 % of control, the T/C (dose: 0.1 mg/kg/injection, schedule: Q01DX Z (ip), vehicle: carboxymethylcellulose (CMC)) was 105 % of control and the T/C (dose: 0.25 mg/kg/injection, schedule: Q01DX001 (ip), vehicle: saline) was 105 % of control. For the same molecule, the T/C (dose: 0.25 mg/kg/injection, schedule: Q01DX009 (ip), vehicle: saline) was 107 % of control, the T/C (dose: 0.25 mg/kg/injection, schedule: Q01DX Z (ip), vehicle: saline) was 118 % of control and the T/C (dose: 0.3 mg/kg/injection, schedule: Q01DX Z (ip), vehicle: carboxymethylcellulose (CMC)) was 105 % of control. The T/C (dose: 0.31 mg/kg/injection, schedule: Q01DX Z (ip), vehicle: saline) was 110 % of control, the T/C (dose: 0.47 mg/kg/injection, schedule: Q01DX Z (ip), vehicle: saline) was 121 % of control and the T/C (dose: 0.5 mg/kg/injection, schedule: Q01DX001 (ip), vehicle: saline) was 103 % of control. For the same molecule, the T/C (dose: 0.5 mg/kg/injection, schedule: Q01DX009 (ip), vehicle: saline) was 109 % of control, the T/C (dose: 0.5 mg/kg/injection, schedule: Q01DX Z (ip), vehicle: saline) was 118 % of control and the T/C (dose: 0.7 mg/kg/injection, schedule: Q01DX Z (ip), vehicle: saline) was 121 % of control. For the same molecule, the T/C (dose: 1.0 mg/kg/injection, schedule: Q01DX001 (ip), vehicle: saline) was 107 % of control, the T/C (dose: 1.0 mg/kg/injection, schedule: Q01DX009 (ip), vehicle: saline) was 121 % of control and the T/C (dose: 1.0 mg/kg/injection, schedule: Q01DX Z (ip), vehicle: saline) was 157 % of control. The T/C (dose: 2.0 mg/kg/injection, schedule: Q01DX001 (ip), vehicle: saline) was 118 % of control, the T/C (dose: 4.0 mg/kg/injection, schedule: Q01DX Z (ip), vehicle: saline) was 94 % of control and the T/C (dose: 5.0 mg/kg/injection, schedule: Q01DX001 (ip), vehicle: saline) was 158 % of control. For the same molecule, the T/C (dose: 5.0 mg/kg/injection, schedule: Q01DX Z (ip), vehicle: methylcellulose (MC)) was 102 % of control and the T/C (dose: 10.0 mg/kg/injection, schedule: Q01DX001 (ip), vehicle: saline) was 103 % of control.
`CC[Si](Cl)(CC)CCCl` was tested, and the T/C [4] was 98 % of control, the T/C [6] was 97 % of control and the T/C [8] was 117 % of control.
For `CC(=O)Nc1ccc(NC(=O)Nc2cc(C)ccc2C)cc1`, the T/C (dose: 25.0 mg/kg/injection, schedule: Q04DX003 (ip), vehicle: saline with Tween-80) was 91 % of control, the T/C (dose: 50.0 mg/kg/injection, schedule: Q04DX003 (ip), vehicle: saline with Tween-80) was 89 % of control and the T/C (dose: 100.0 mg/kg/injection, schedule: Q01DX001 (ip), vehicle: saline with Tween-80) was 91 % of control. For the same molecule, the T/C (dose: 100.0 mg/kg/injection, schedule: Q01DX009 (ip), vehicle: saline with Tween-80) was 92 % of control and 86 % of control, the T/C (dose: 100.0 mg/kg/injection, schedule: Q04DX002 (ip), vehicle: saline with Tween-80) was 90 % of control and 91 % of control and the T/C [1] was 91 % of control. The T/C (dose: 200.0 mg/kg/injection, schedule: Q01DX001 (ip), vehicle: saline with Tween-80) was 89 % of control, the T/C (dose: 200.0 mg/kg/injection, schedule: Q01DX009 (ip), vehicle: saline with Tween-80) was 99 % of control and 91 % of control and the T/C (dose: 200.0 mg/kg/injection, schedule: Q04DX002 (ip), vehicle: saline with Tween-80) was 87 % of control and 90 % of control. The T/C (dose: 400.0 mg/kg/injection, schedule: Q01DX001 (ip), vehicle: saline with Tween-80) was 89 % of control, the T/C (dose: 400.0 mg/kg/injection, schedule: Q01DX009 (ip), vehicle: saline with Tween-80) was 92 % of control and 100 % of control and the T/C (dose: 400.0 mg/kg/injection, schedule: Q04DX002 (ip), vehicle: saline with Tween-80) was 89 % of control and 91 % of control. For the same molecule, the T/C [2] was 87 % of control.
For `CN=C(NCCCOC)c1ccc(NC(=O)Nc2ccc(NC(=O)Nc3ccc(C(=NC)NCCCOC)cc3)cc2)cc1`, the T/C (dose: 1.87 mg/kg/injection, schedule: Q01DX Z (ip), vehicle: carboxymethylcellulose (CMC)) was 107 % of control, the T/C (dose: 3.75 mg/kg/injection, schedule: Q01DX Z (ip), vehicle: carboxymethylcellulose (CMC)) was 96 % of control and the T/C (dose: 7.5 mg/kg/injection, schedule: Q01DX Z (ip), vehicle: carboxymethylcellulose (CMC)) was 104 % of control. The T/C (dose: 15.0 mg/kg/injection, schedule: Q01DX Z (ip), vehicle: carboxymethylcellulose (CMC)) was 102 % of control.
For `CCOC(=O)C(Cc1c[nH]c2ccccc12)[N+](=O)[O-]` (stereo not drawn), the T/C (dose: 100.0 mg/kg/injection, schedule: Q04DX003 (sc), vehicle: olive oil, sesame oil, peanut oil) was 97 % of control, the T/C (dose: 200.0 mg/kg/injection, schedule: Q04DX003 (sc), vehicle: olive oil, sesame oil, peanut oil) was 98 % of control and the T/C (dose: 400.0 mg/kg/injection, schedule: Q04DX003 (sc), vehicle: olive oil, sesame oil, peanut oil) was 101 % of control.
With `CN(C)C(N)=O` the T/C (dose: 75.0 mg/kg/injection, schedule: Q01DX009 (ip), vehicle: saline) was 102 % of control, the T/C (dose: 150.0 mg/kg/injection, schedule: Q01DX009 (ip), vehicle: saline) was 98 % of control and the T/C (dose: 300.0 mg/kg/injection, schedule: Q01DX009 (ip), vehicle: saline) was 100 % of control.
For `O=C1C2C(C(=O)N1c1ccccc1)C(c1ccccc1)N(c1ccccc1)C2c1ccccc1` (stereo not drawn), the T/C (dose: 50.0 mg/kg/injection, schedule: Q01DX001 (ip), vehicle: saline) was 103 % of control, the T/C (dose: 100.0 mg/kg/injection, schedule: Q01DX001 (ip), vehicle: saline) was 108 % of control and the T/C (dose: 200.0 mg/kg/injection, schedule: Q01DX001 (ip), vehicle: saline) was 100 % of control. For the same molecule, the T/C (dose: 400.0 mg/kg/injection, schedule: Q01DX001 (ip), vehicle: saline) was 103 % of control.
In the case of `O=P(CCCl)(OCCCl)N1CCCCC1` (stereo not drawn), the T/C (dose: 50.0 mg/kg/injection, schedule: Q04DX003 (ip), vehicle: saline) is reported as 104 % of control, the T/C [3] is reported as 93 % of control and the T/C [4] is reported as 104 % of control. For the same molecule, the T/C [5] was 96 % of control, the T/C [6] was 102 % of control and the T/C [7] was 88 % of control. The T/C [8] was 98 % of control.

Reference: PubChem BioAssay AID248 (DTP/NCI, 2004)
